Laboratory results as given in paper PMC6269914, “In Vitro Evaluation of Novel Inhibitors against the NS2B-NS3 Protease of Dengue Fever Virus Type 4” (Molecules, 2013).

Key:
DENV4 NS2B-NS3pro [1] = biological target: T1, DENV4 NS2B-NS3pro (Dengue virus type 4, UniProt Q2YHF0, DELINS1442-1474GGGGSGGGG); test: In vitro inhibition assay of recombinant NS2B-NS3pro with fluorogenic AMC peptide substrate; assay type: biochemical, dengue virus type 4 (DENV4); details: primary inhibition assay at a 100 μM concentration of inhibitors; Table S1
T1 sequence (Q2YHF0 1475-1660, added parts left off, stated change not applied): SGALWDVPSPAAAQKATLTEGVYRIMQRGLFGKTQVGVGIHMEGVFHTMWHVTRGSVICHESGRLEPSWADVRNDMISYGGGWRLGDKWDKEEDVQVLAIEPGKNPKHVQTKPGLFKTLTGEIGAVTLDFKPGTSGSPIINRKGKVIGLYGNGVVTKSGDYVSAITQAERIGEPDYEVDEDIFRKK

DENV4 NS2B-NS3pro [2] = biological target: T1, DENV4 NS2B-NS3pro; test: Inhibitor enzyme kinetics (Lineweaver-Burk and Dixon plots) against NS2B-NS3pro; assay type: biochemical, dengue virus type 4 (DENV4); details: AMC peptide substrates
Description: Inhibitory kinetic experiments were performed at different constant inhibitor concentrations and different substrate concentrations. Lineweaver–Burk and Dixon plots were used to analyze the inhibition modes of these compounds. Ki values were calculated from the Dixon plots.
The type of inhibition was determined using Lineweaver–Burk plots, and Ki values were determined with a Dixon plot (1/v as a function of [I], inhibitor concentration) from different inhibitor concentrations.

Which results are given for Cc1cccc(C)c1-n1c(SCc2cc(=O)n3cc(Cl)ccc3n2)nc2c(sc(=S)n2-c2c(C)cccc2C)c1=O [Compound 22, 5-[[(7-chloro-4-oxo-4H-pyrido[1,2-a]pyrimidin-2-yl)methyl)sulfanyl)-3,6-bis(2,6-dimethylphenyl)-2-thioxo-2,3-dihydro[1,3]thiazolo[4,5-d]pyrimidin-7(6H)-one]?
Inhibition Activity (DENV4 NS2B-NS3pro [1]): 91.65%; Inhibition mode (DENV4 NS2B-NS3pro [2]): competitive inhibitors
